For test [1], the target named is Sphingosine 1-phosphate receptor 2 (Homo sapiens, UniProt O95136). Nature of the test: Dose Response Cell Based Assay for Antagonists of the S1P2 Receptor. [Related pubchem assays: 856, 736 ]. Type of test: functional.
The target in test [2] is Protein-tyrosine kinase 2-beta (Homo sapiens, UniProt Q14289).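 Also: potency of inhibitors of PYK2 kinase phosphorylation of poly-GT substrate.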
Another test addresses Prothrombin (Homo sapiens, UniProt P00734). The test is described as follows: Thrombin 1536 HTS Dose Response Confirmation. [Related pubchem assays: 1046 (Thrombin 1536 HTS; hits were confirmed in this assay)]. The format is functional.
For another test, the target named is Cytochrome P450 2C19 (Homo sapiens, UniProt P33261). Nature of the test: Cytochrome panel assay with activity outcomes. Panel member name: p450-cyp2c19 Compounds with AC50 equal or less than 10 uM are considered active. As to conditions: read-out: AC50. Type of test: functional.
Test [3] addresses T1, Replicative DNA helicase DnaB (Mycobacterium tuberculosis, UniProt P9WMR3).
T1 sequence (P9WMR3 whole entry): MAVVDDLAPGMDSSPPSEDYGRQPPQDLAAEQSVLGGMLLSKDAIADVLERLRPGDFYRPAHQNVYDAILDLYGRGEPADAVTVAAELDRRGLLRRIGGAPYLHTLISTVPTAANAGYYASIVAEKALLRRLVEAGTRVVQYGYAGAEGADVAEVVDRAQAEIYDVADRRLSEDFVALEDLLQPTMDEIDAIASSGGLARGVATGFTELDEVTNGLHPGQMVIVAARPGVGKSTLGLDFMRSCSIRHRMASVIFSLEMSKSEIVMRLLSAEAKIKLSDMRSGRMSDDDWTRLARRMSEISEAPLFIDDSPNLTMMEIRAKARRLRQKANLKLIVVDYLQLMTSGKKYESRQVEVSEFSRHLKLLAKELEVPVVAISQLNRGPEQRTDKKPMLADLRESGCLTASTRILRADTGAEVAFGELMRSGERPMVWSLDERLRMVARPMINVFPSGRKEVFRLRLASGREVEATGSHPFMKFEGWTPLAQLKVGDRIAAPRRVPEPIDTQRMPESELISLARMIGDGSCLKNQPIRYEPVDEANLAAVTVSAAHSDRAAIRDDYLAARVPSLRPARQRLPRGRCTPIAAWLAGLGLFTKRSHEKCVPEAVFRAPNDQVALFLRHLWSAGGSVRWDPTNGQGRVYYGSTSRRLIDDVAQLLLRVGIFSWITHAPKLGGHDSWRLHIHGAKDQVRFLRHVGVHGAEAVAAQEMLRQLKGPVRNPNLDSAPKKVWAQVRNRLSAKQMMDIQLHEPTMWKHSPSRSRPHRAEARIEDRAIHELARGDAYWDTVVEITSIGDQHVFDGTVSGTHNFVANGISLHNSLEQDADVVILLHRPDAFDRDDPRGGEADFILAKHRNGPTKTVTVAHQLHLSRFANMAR
The test is described as follows: DnaB intein splicing inhibitors, dose response, biochemical, cell-free fluorescence (AID 449749). The format is functional.

The next test has as its target T2, Protein RecA (Mycobacterium tuberculosis, UniProt P9WHJ3).
T2 sequence (P9WHJ3 whole entry): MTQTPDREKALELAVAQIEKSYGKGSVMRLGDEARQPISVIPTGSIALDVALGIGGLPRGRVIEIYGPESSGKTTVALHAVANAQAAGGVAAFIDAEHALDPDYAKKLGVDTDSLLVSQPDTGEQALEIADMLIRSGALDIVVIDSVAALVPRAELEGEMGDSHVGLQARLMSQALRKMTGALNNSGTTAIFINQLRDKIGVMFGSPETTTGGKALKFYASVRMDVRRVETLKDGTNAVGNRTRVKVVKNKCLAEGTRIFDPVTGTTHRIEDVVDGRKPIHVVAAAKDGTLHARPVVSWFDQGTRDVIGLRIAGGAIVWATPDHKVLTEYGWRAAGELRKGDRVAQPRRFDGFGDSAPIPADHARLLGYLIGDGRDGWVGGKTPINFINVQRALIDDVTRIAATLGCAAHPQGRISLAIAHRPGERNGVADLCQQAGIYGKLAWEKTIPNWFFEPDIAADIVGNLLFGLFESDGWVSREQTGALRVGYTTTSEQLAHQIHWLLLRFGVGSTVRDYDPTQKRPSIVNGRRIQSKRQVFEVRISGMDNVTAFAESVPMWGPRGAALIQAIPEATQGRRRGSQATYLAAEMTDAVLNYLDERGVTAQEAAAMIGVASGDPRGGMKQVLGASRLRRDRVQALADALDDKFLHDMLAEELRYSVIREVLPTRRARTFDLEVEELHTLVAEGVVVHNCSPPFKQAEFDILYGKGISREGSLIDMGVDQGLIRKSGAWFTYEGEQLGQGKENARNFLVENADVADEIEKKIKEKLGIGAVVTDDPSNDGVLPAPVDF
The test is described as follows: Fluorescence Cell-Free Homogeneous Dose Retest to Identify Inhibitors of RecA-Intein Splicing Activity. [Related pubchem assays (depositor defined):AID2097, AID2223, AID489010, AID492950]. The format is functional.

The target in the next test is Cytochrome P450 2C9 (Homo sapiens, UniProt P11712).
Test [4] can be described thus: M. tuberculosis growth inhibition, HTS (AID 449762). The format is functional.
Another test addresses Mucolipin-3 (Homo sapiens, UniProt Q8TDD5). The test is described as follows: Dose response cell-based high-throughput screening assay for agonists of the transient receptor potential channel ML3 (TRPML3). [Related pubchem assays: 1526, 1424, 1448 ]. Type of test: functional.
The next test addresses Ion channel NompC (Danio rerio, UniProt Q7T1G6). Nature of the test: Fluorescence counterscreen assay for TRPML3 agonists: dose response cell-based high-throughput screening assay to identify agonists of the transient receptor potential channel N1 (TRPN1). [Related pubchem assays: 1526, 1424, 1448 ]. The format is functional. (Counterscreens check selectivity or assay interference.)

The target of test [5] is T3, Bcl-2-related protein A1 (Mus musculus, UniProt Q07440).
T3 sequence (Q07440 whole entry): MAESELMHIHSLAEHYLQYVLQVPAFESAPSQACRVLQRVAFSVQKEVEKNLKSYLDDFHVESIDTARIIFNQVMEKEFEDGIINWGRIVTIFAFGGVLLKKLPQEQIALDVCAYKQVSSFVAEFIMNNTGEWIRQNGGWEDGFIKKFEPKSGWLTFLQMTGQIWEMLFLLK
The test is described as follows: small-molecule antagonists of Bfl-1/BH3 interaction – biochemical, TR-FRET, mouse Bfl-1, confirmation (AID 621).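 Also: TR-FRET binding of GST-Bfl-1 to FITC-labelled Bid peptide via terbium antibody.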

Test [6] addresses T3, Bcl-2-related protein A1. The test is described as follows: Bfl-1 binding inhibitors, SAR follow-up, biochemical, fluorescence polarization (AID 1070). (In general: In fluorescence polarisation assays a small probe gives low polarisation when free and higher when bound to something large.)
The target in test [7] is 5-hydroxytryptamine receptor 1A (Homo sapiens, UniProt P08908). Type of test: functional.

Active and inactive are the calls of the source.

The term IC50 denotes the concentration that inhibits the measured activity by half. A word on the AC50: it is the concentration at which the activity in the assay is half-maximal. Broadly, the EC50 is the concentration at which the effect is half-maximal.

Cytochrome P450 2C19, sequence (P33261 whole entry): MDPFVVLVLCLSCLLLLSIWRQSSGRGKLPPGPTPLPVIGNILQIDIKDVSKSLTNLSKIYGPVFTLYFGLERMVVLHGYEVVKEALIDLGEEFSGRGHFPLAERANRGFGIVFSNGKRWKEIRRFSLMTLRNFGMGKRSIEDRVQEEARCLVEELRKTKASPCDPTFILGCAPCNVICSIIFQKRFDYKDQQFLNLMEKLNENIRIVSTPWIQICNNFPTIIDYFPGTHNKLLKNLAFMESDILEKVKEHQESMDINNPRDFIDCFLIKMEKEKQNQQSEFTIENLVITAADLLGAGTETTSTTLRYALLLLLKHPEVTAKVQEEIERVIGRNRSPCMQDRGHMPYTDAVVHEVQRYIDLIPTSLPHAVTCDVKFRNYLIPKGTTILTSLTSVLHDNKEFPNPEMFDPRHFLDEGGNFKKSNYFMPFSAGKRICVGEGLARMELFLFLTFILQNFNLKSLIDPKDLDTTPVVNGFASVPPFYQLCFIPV
Sphingosine 1-phosphate receptor 2, sequence (O95136 whole entry): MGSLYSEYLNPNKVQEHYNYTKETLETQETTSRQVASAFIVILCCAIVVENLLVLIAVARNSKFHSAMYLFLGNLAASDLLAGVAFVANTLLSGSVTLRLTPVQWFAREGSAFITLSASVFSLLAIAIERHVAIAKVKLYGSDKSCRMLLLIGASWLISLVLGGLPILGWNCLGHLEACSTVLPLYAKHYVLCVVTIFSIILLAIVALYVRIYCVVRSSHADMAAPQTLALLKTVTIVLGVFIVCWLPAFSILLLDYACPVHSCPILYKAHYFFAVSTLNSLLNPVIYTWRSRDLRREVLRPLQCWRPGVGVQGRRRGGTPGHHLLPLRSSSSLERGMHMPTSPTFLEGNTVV
Mucolipin-3, sequence (Q8TDD5 whole entry): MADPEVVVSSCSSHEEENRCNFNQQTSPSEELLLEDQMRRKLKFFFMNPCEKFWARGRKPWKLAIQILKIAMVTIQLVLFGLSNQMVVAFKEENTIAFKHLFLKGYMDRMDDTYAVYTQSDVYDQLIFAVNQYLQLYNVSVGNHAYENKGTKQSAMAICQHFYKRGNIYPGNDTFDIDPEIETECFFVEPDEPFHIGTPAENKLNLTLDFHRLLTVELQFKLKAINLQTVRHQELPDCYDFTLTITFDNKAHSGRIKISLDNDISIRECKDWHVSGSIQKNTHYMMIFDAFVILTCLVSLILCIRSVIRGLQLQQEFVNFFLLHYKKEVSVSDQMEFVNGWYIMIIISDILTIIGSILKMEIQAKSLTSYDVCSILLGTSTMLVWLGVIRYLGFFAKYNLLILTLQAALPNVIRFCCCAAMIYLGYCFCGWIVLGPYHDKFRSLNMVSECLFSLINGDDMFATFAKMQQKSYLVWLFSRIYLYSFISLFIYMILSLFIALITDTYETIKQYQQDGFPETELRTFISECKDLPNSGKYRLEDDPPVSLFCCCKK
Ion channel NompC, sequence (Q7T1G6 whole entry): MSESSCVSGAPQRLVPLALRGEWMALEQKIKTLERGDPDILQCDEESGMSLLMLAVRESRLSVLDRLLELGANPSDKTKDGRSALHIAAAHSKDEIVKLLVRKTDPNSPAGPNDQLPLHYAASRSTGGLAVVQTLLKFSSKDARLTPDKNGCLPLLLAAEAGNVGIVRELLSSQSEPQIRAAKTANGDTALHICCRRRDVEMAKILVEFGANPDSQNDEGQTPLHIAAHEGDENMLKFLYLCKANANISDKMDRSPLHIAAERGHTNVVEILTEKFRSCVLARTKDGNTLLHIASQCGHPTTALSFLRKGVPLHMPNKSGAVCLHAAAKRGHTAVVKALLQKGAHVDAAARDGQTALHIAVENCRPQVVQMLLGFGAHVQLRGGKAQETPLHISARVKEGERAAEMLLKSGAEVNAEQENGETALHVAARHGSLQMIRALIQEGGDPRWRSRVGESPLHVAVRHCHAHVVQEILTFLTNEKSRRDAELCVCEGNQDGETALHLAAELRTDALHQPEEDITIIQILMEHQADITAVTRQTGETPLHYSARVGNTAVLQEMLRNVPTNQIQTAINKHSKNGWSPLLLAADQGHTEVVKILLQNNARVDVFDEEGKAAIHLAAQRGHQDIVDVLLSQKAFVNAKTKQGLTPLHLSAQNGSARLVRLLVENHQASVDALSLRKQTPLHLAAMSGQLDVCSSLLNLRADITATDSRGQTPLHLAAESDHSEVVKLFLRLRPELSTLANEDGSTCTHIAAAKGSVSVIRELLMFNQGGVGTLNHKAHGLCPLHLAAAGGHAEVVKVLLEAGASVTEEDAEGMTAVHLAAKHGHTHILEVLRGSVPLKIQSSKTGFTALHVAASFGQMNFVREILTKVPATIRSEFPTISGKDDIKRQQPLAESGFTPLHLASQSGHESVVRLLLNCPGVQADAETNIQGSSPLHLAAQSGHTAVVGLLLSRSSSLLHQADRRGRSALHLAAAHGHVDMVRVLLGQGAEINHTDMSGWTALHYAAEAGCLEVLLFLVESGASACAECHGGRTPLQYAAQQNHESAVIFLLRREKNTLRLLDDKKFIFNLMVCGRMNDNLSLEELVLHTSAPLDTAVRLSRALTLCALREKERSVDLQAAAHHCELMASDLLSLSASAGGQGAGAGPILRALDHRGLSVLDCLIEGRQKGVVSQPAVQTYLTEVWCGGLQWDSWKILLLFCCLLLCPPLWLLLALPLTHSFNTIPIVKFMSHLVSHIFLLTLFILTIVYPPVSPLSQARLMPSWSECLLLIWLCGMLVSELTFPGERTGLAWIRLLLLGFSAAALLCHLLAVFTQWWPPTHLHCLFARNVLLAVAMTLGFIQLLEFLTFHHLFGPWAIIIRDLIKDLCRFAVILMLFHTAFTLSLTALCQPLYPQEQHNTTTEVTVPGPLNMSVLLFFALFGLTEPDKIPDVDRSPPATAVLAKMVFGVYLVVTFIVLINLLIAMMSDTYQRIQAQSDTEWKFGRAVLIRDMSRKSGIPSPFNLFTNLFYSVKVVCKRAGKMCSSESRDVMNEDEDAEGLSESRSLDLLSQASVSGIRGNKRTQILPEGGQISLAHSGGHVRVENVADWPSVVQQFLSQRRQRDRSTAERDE
5-hydroxytryptamine receptor 1A, sequence (P08908 whole entry): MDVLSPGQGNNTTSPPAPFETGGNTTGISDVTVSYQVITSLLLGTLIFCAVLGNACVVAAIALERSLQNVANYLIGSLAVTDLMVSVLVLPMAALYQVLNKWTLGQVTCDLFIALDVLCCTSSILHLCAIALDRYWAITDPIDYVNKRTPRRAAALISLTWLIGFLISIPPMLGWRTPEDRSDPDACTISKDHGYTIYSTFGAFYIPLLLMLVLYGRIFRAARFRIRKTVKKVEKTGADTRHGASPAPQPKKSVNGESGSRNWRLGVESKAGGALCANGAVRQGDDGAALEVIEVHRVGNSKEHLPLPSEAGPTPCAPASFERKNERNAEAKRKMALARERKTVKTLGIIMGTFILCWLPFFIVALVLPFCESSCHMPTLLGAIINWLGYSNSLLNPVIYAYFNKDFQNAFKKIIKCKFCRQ
Cytochrome P450 2C9, sequence (P11712 whole entry): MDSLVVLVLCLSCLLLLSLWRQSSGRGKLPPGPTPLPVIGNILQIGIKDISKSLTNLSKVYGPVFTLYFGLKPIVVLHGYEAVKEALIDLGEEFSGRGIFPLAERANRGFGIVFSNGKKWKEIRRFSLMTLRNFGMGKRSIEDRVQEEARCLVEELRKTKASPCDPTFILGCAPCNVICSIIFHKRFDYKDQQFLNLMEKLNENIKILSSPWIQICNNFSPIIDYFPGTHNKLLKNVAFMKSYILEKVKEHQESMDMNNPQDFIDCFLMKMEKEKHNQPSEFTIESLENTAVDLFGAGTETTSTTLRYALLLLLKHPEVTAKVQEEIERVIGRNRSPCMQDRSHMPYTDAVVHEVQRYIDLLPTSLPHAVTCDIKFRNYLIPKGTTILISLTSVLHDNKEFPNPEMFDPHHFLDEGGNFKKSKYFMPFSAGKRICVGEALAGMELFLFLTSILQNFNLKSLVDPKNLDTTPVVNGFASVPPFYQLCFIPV
Protein-tyrosine kinase 2-beta, sequence (Q14289 whole entry): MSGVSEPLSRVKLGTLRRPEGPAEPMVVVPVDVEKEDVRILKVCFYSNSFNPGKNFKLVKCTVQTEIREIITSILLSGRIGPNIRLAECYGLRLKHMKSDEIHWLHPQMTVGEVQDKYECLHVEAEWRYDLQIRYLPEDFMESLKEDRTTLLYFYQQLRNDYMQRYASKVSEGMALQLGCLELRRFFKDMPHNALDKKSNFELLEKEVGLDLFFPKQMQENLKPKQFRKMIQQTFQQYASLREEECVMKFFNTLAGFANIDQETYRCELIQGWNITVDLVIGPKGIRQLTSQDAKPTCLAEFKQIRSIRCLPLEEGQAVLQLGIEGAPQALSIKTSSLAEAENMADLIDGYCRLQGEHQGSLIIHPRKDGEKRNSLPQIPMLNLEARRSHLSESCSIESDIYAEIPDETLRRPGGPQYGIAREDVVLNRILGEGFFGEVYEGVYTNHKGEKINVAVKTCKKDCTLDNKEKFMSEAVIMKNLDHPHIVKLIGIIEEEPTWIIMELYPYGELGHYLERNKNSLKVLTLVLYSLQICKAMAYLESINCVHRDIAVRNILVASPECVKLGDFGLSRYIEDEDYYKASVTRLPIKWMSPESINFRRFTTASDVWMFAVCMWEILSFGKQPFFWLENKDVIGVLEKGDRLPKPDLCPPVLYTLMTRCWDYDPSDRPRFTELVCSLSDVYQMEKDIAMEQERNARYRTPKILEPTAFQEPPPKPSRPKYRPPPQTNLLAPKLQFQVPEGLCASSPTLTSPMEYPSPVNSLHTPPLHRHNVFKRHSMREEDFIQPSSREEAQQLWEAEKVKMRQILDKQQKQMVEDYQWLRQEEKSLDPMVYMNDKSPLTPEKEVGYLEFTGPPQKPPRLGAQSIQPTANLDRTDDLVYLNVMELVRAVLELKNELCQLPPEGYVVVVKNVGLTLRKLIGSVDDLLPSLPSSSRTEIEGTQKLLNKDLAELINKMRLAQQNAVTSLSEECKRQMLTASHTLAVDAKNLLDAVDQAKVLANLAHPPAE

For the compound `O=C(Nc1ccc(F)cc1)c1sc(-c2ccccc2)nc1C(F)(F)F`, the IC50 in [1] was > 30 µM (not active).

In the case of `O=C(Oc1ccccc1)c1c(Cl)cccc1P(=O)(O)O`, the IC50 in test [2] was 6.43 µM (active).

Regarding `CCOC(=O)CSc1n[nH]c(NC(=O)c2cccc(C(F)(F)F)c2)n1`, at Prothrombin, the IC50 is 0.515 µM (active). Also, the AC50 is 2.51 µM (inconclusive) at Cytochrome P450 2C19, 11.3 µM (active) in test [3] and 5.01 µM (inconclusive) at Cytochrome P450 2C9. At Protein RecA, the EC50 is 12.4 µM (active).

For the compound `CCOC(=O)c1ccc(NC(=O)CSc2ccc(-c3cccnc3)nn2)cc1`, the IC50 in test [4] is > 100 µM (active).

For the compound `Cc1ccc(S(=O)(=O)N(C)c2cc(S(=O)(=O)N3CCC(C)CC3)c(C)cc2C)cc1`, the EC50 on Mucolipin-3 is 2.06 µM (active); at Ion channel NompC, > 29.9 µM (not active).

As to `Cc1ccc(-n2nnc(-c3cc4ccccc4nc3Cl)n2)cc1`, the IC50 on Bcl-2-related protein A1 [5] and at Bcl-2-related protein A1 [6] was > 100 µM (not active) each time.

For `COC(=O)CC(=O)Cc1nc(N)nc(Nc2ccc(C)c(C)c2)n1`, in test [7], the EC50 is listed as > 50 µM (not active).

These data come from ChEMBL document CHEMBL1201862, “PubChem BioAssay data set” (2004).
